molecular target: JAK2 (JH1 domain-catalytic, Y1007F, Y1008F) kinase (Homo sapiens (Human), UniProt O60674, Y1007F/Y1008F); experiment: JAK2 JH1 Domain Binding Assay; settings: qPCR readout
Description: JAK2 (JH1 domain-catalytic, Y1007F, Y1008F) kinase was expressed as N-terminal fusion to the DNA binding domain of NFkB in transiently transfected HEK293 cells and subsequently tagged with DNA for qPCR detection. Streptavidin-coated magnetic beads were treated with biotinylated small molecule ligands for 30 minutes at room temperature to generate affinity resins for kinase assays. The liganded beads were blocked with excess biotin and washed with blocking buffer (SeaBlock (Pierce), 1% BSA, 0.05% Tween 20, 1 mmol/L DTT) to remove unbound ligand and to reduce nonspecific phage binding. Binding reactions were assembled by combining kinases, liganded affinity beads, and test compounds in 1× binding buffer (1× PBS, 0.05% Tween 20, 0.1% BSA, 1 mmol/L DTT). Test compound was prepared as 111× stocks in 100% DMSO and directly diluted into the assay wells. All reactions were performed in polypropylene 384-well plates in a final volume of 0.02 mL. The assay plates were incubated at room temperature with shaking for 1 hour and the affinity beads were washed with wash buffer (1× PBS, 0.05% Tween 20). The beads were then re-suspended in elution buffer (1× PBS, 0.05% Tween 20, 0.5 μmol/L non-biotinylated affinity ligand) and incubated at room temperature with shaking for 30 minutes. The kinase concentration in the eluate was measured by qPCR.

Sequence of JAK2 (JH1 domain-catalytic, Y1007F, Y1008F) kinase (O60674 849-1124 Y1007F/Y1008F): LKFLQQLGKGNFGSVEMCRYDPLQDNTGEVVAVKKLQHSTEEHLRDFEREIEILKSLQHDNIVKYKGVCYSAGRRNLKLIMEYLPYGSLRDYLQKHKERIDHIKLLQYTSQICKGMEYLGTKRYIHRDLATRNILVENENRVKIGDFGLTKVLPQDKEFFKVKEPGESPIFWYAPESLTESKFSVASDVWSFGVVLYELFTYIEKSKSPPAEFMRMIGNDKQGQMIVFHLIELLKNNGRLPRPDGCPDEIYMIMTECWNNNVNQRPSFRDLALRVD

Molecule | Kd [nM]
CC1CN(C(=O)Nc2cc(C(F)(F)F)cn(C)c2=O)C2(CCN(c3cnc4[nH]cc(F)c4n3)CC2)C1 (single isomer, unassigned) [Example I-54-a] | 50 to 1000
COCCOc1n[nH]c2ncc(N3CC[C@@H]4[C@@H](C3)OCCN4C(=O)Nc3cc(C(F)(F)F)cn(C)c3=O)cc12 [Example I-162-b, (4aR,8aR)-6-(3-(2-methoxyethoxy)-1H-pyrazolo[3,4-b]pyridin-5-yl)-N-(1-methyl-2-oxo-5-(trifluoromethyl)-1,2-dihydropyridin-3-yl)octahydro-1H-pyrido[3,4-b][1,4]oxazine-1-carboxamide] | 10 to 50
CN(C(=O)Nc1cc(C(F)(F)F)cn(C)c1=O)C1CCN(c2ccc(NC(=O)C3CC3)nc2)CC1 [Example I-24, N-(5-(4-(1-methyl-3-(1-methyl-2-oxo-5-(trifluoromethyl)-1,2-dihydropyridin-3-yl)ureido)piperidin-1-yl)pyridin-2-yl)cyclopropanecarboxamide] | < 10
COc1n[nH]c2ncc(N3CC[C@@H](N(C)C(=O)Nc4cc(C(F)(F)F)cn(C)c4=O)C[C@H]3C)cc12 [Example I-133-b, 1-((2R,4R)-1-(3-methoxy-1H-pyrazolo[3,4-b]pyridin-5-yl)-2-methylpiperidin-4-yl)-1-methyl-3-(1-methyl-2-oxo-5-(trifluoromethyl)-1,2-dihydropyridin-3-yl)urea] | < 10
C[C@H]1C[C@@H](N(C)C(=O)Nc2cc(C(F)(F)F)cn(C)c2=O)CCN1c1cnc2[nH]ccc2n1 [Example I-126-a, 1-methyl-1-((2S,4S)-2-methyl-1-(5H-pyrrolo[2,3-b]pyrazin-2-yl)piperidin-4-yl)-3-(1-methyl-2-oxo-5-(trifluoromethyl)-1,2-dihydropyridin-3-yl)urea] | < 10
CNc1n[nH]c2ncc(N3CCC(N(C)C(=O)Nc4cc(C(F)(F)F)cn(C)c4=O)CC3)cc12 [Example I-99, 1-methyl-3-(1-methyl-2-oxo-5-(trifluoromethyl)-1,2-dihydropyridin-3-yl)-1-(1-(3-(methylamino)-1H-pyrazolo[3,4-b]pyridin-5-yl)piperidin-4-yl)urea] | < 10
CNc1c[nH]c2ncc([C@H]3CC[C@@H](N(C)C(=O)Nc4cc(C(F)(F)F)cn(C)c4=O)CC3)nc12 [Example I-145, 1-methyl-3-(1-methyl-2-oxo-5-(trifluoromethyl)-1,2-dihydropyridin-3-yl)-1-((1s,4s)-4-(7-(methylamino)-5H-pyrrolo[2,3-b]pyrazin-2-yl)cyclohexyl)urea] | < 10
1-(1-(3-((1R,2R)-2-hydroxycyclobutoxy)-1H-pyrazolo[3,4-b]pyridin-5-yl)piperidin-4-yl)-1-methyl-3-(1-methyl-2-oxo-5-(trifluoromethyl)-1,2-dihydropyridin-3-yl)urea and 1-(1-(3-((1S,2S)-2-hydroxycyclobutoxy)-1H-pyrazolo[3,4-b]pyridin-5-yl)piperidin-4-yl)-1-methyl-3-(1-methyl-2-oxo-5-(trifluoromethyl)-1,2-dihydropyridin-3-yl)urea [Example I-184-a] | 50 to 1000
CO[C@@H]1CN(c2cnc3[nH]nc(N(C)C)c3c2)CC[C@H]1N(C)C(=O)Nc1cc(C(F)(F)F)cn(C)c1=O [Example I-115-a, 1-((3R,4R)-1-(3-(dimethylamino)-1/-pyrazolo[3,4-b]pyridin-5-yl)-3-methoxypiperidin-4-yl)-1-methyl-3-(1-methyl-2-oxo-5-(trifluoromethyl)-1,2-dihydropyridin-3-yl)urea] | 10 to 50
C[C@@H]1CN(C(=O)Nc2cc(C(F)(F)F)cn(C)c2=O)C2(CCN(c3cnc4[nH]ccc4n3)CC2)C1 (single isomer, unassigned) [Example I-53-a] | 50 to 1000
C[C@@H]1CN(c2cnc3[nH]ncc3c2)CC[C@H]1N(C)C(=O)Nc1cc(C(F)(F)F)cn(C)c1=O [Example I-74-b, 1-methyl-1-((3R,4R)-3-methyl-1-(1H-pyrazolo[3,4-b]pyridin-5-yl)piperidin-4-yl)-3-(1-methyl-2-oxo-5-(trifluoromethyl)-1,2-dihydropyridin-3-yl)urea] | 50 to 1000
[2H]C1([2H])C[C@@H](N(C)C(=O)Nc2cc(C(F)(F)F)cn(C)c2=O)[C@H](OC)C([2H])([2H])N1c1cnc2[nH]ncc2c1 [Example I-153-a, 1-((3R,4R)-3-methoxy-1-(1H-pyrazolo[3,4-b]pyridin-5-yl)piperidin-4-yl-2,2,6,6-d4)-1-methyl-3-(1-methyl-2-oxo-5-(trifluoromethyl)-1,2-dihydropyridin-3-yl)urea] | < 10
Cn1cc(C(F)(F)F)cc(NC(=O)N2CCO[C@@H]3CN(c4cnc5[nH]ccc5n4)CC[C@H]32)c1=O [Example I-128-b, (4aR,8aR)-N-(1-methyl-2-oxo-5-(trifluoromethyl)-1,2-dihydropyridin-3-yl)-6-(5H-pyrrolo[2,3-b]pyrazin-2-yl)octahydro-1H-pyrido[3,4-b][1,4]oxazine-1-carboxamide] | < 10
C[C@H]1CN(C(=O)Nc2cc(C(F)(F)F)cn(C)c2=O)C2(CCN(c3cnc4[nH]cc(C#N)c4n3)CC2)C1 (single isomer, unassigned) [Example I-60-b] | 50 to 1000
CN(C(=O)Nc1cc(C(F)(F)F)ccn1)[C@H]1CCN(c2cnc3[nH]ncc3c2)CC1(F)F (mixture of isomers) [Example I-146-b, (R)-1-(3,3-difluoro-1-(1H-pyrazolo[3,4-b]pyridin-5-yl)piperidin-4-yl)-1-methyl-3-(4-(trifluoromethyl)pyridin-2-yl)urea and (S)-1-(3,3-difluoro-1-(1H-pyrazolo[3,4-b]pyridin-5-yl)piperidin-4-yl)-1-methyl-3-(4-(trifluoromethyl)pyridin-2-yl)urea] | < 10

More lines, now with the values ahead:

Kd [nM] | Molecule
10 to 50 | CN(C(=O)Nc1cc(C(F)(F)F)cn(C)c1=O)C1CCN(c2cnc3[nH]cnc3c2)CC1 [Example I-38, 1-(1-(3H-imidazo[4,5-b]pyridin-6-yl)piperidin-4-yl)-1-methyl-3-(1-methyl-2-oxo-5-(trifluoromethyl)-1,2-dihydropyridin-3-yl)urea]
< 10 | C[C@H]1CN(c2cnc3[nH]ncc3c2)CC[C@H]1N(C)C(=O)Nc1cc(C(F)(F)F)cn(C)c1=O [Example I-70-b, 1-methyl-1-((3S,4R)-3-methyl-1-(1H-pyrazolo[3,4-b]pyridin-5-yl)piperidin-4-yl)-3-(1-methyl-2-oxo-5-(trifluoromethyl)-1,2-dihydropyridin-3-yl)urea]
< 10 | Cc1n[nH]c2ncc(N3CCC(N(C)C(=O)Nc4cc(C(F)(F)F)cn(C)c4=O)C(F)(F)C3)cc12 (single isomer, unassigned) [Example I-36-b, (S)- or (R)-1-(3,3-difluoro-1-(3-methyl-1H-pyrazolo[3,4-b]pyridin-5-yl)piperidin-4-yl)-1-methyl-3-(1-methyl-2-oxo-5-(trifluoromethyl)-1,2-dihydropyridin-3-yl)urea]
1000 to 5000 | CC(=O)Nc1cnc(N2CCC(CC(=O)Nc3cc(CN4CCN(C)CC4)cc(C(F)(F)F)c3)CC2)cn1 [Example I-7, 2-(1-(5-acetamidopyrazin-2-yl)piperidin-4-yl)-N-(3-((4-methylpiperazin-1-yl)methyl)-5-(trifluoromethyl)phenyl)acetamide]
10 to 50 | CN(C(=O)Nc1cc(C(F)(F)F)cn(C)c1=O)[C@H]1CCN(c2cnc3[nH]cc(N4CCOCC4)c3n2)CC1(F)F (single isomer, unassigned) [Example I-155-b]
< 10 | COc1c[nH]c2ncc(N3CC[C@@H](N(C)C(=O)Nc4cc(C(F)(F)F)cn(C)c4=O)[C@@H](F)C3)nc12 [Example I-152, 1-((3S,4R)-3-fluoro-1-(7-methoxy-5H-pyrrolo[2,3-b]pyrazin-2-yl)piperidin-4-yl)-1-methyl-3-(1-methyl-2-oxo-5-(trifluoromethyl)-1,2-dihydropyridin-3-yl)urea]
10 to 50 | CN(C(=O)Nc1cc(C(F)(F)F)cn(C)c1=O)[C@H]1[C@@H]2CC[C@H]1CN(c1cnc3[nH]ccc3n1)C2 [Example I-79, 1-(3-(5H-pyrrolo[2,3-b]pyrazin-2-yl)-3-azabicyclo[3.2.1]octan-8-yl)-1-methyl-3-(1-methyl-2-oxo-5-(trifluoromethyl)-1,2-dihydropyridin-3-yl)urea]
10 to 50 | CN(C(=O)Nc1cc(C(F)(F)F)cn(C)c1=O)[C@@H]1CCN(c2cnc3[nH]cc(N4CCOCC4)c3n2)CC1(F)F (single isomer, unassigned) [Example I-155-a]
< 10 | COc1n[nH]c2ncc(N3CC[C@H](N(C)C(=O)Nc4cc(C(F)(F)F)cn(C)c4=O)[C@H](F)C3)cc12 [Example I-87-b, 1-((3R,4S)-3-fluoro-1-(3-methoxy-1H-pyrazolo[3,4-b]pyridin-5-yl)piperidin-4-yl)-1-methyl-3-(1-methyl-2-oxo-5-(trifluoromethyl)-1,2-dihydropyridin-3-yl)urea]
< 10 | CNc1c[nH]c2ncc([C@H]3CC[C@H](N(C)C(=O)Nc4cc(C(F)(F)F)cn(C)c4=O)CC3)nc12 [Example I-144, trans-1-methyl-3-(1-methyl-2-oxo-5-(trifluoromethyl)-1,2-dihydropyridin-3-yl)-1-(4-(7-(methylamino)-5H-pyrrolo[2,3-b]pyrazin-2-yl)cyclohexyl)urea]
